Among the data in patent publication US12030875B2, “EIF4E inhibitors and uses thereof” (PIC Therapeutics, Inc., priority 2018, dated 2024) are IC50 values, retold here.

Some results are limits rather than exact numbers.

The target in this test is T1, Human eIF4E (Homo sapiens, UniProt P06730).
T1 construct: Human eIF4E (aa 28-217) with a C-terminal His-tag; made in house
T1 sequence (P06730 28-217): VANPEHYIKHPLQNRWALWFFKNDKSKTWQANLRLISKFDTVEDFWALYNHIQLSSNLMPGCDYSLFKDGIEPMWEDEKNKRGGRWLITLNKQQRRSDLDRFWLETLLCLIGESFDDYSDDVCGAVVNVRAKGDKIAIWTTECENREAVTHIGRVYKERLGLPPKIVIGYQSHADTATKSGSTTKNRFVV
The test can be described thus: Human eIF4E/4G2 binding assay (TR-FRET). As to conditions: eIF4E (aa 28-217) with biotin labeled 4G2 peptide. The method, then: Human eIF4E (aa 28-217) with a C-terminal His-tag was expressed in E. coli in inclusion bodies. The protein was solubilized with 8 M urea and purified under denaturing conditions using nickel-charged HisTrap HP columns (GE Healthcare). The purified protein was then refolded by diluting in 20 mM Hepes pH 7.0, 0.5 M NaCl, 1 mM DTT, 1 mM EDTA, 0.5 M arginine plus 6 M urea, and then dialyzing overnight into the same buffer without the urea. The protein was further dialyzed into 20 mM Hepes, pH 6.5, 50 mM NaCl, 1 mM EDTA, 1 mM DTT, and concentrated using Hitrap SP sepharose FF columns (GE Healthcare). The concentrated protein was dialyzed into 20 mM Hepes, pH 7.0, 0.5M NaCl, 5 mM DTT and 10% glycerol, and stored at −80° C. until use.
Test compounds (3.43 mM stock in DMSO) were diluted 2-fold in series in DMSO (10 concentration points). Compound solutions (1.2 μl/well) were added into black 384-well polypropylene microplates (Matrix, Thermal Scientific). Twenty-two microliters per well of Assay Buffer (50 mM NaPi, pH 6.5, 50 mM KCl, 1 mM DTT and 0.5 mg/ml gamma globulin) and eight microliters per well of 82.5 nM purified eIF4E in Assay Buffer were added. The samples were incubated at room temperature (20-23° C.) for 15 min. Biotin labeled 4G2 peptide (Ac-Lys-Gln-Tyr-Asp-Arg-Glu-Phe-Leu-Leu-Asp-Phe-Gln-Phe-Met-Pro-Lys(Aha-Bio)-NH2, 1.75 μM stock in DMSO) was diluted to 0.14 μM in Assay Buffer (without DTT) and 5 μl/well was added. The samples were incubated at room temperature for 15 min. Five microliters per well of 6.4 nM Eu-streptavidin (Eu-SA, Perkin Elmer) and 80 nM Allophycocyanin (APC)-anti His antibody (Columbia Biosciences) in Assay Buffer (without DTT) were then added and the samples were incubated at room temperature for 20 min.
Assay signals were monitored by reading excitation at 340 nm and emission fluorescence at 615 nm and 665 nm on an Envision reader (Perkin Elmer). Normalized TR-FRET (time-resolved fluorescence resonance energy transfer) assay signal (Rn) was calculated by the formula: Rn═[(A−Ba−C×D)/(D−Bd)]×(Dc−Bd) • Where A is the fluorescence intensity of the sample at 665 nm, • D is the fluorescence intensity of the sample at 615 nm, • Ba and Bd are plate backgrounds at 665 nm and 615 nm, respectively, • Dc is the fluorescence intensity of 0.78 nM Eu-SA in the assay buffer at 615 nm • The cross-talk factor (C) is determined by the following formula: C=(Ac−Ba)/(Dc−Bd) • Where Ac is the fluorescence intensity of 0.78 nM Eu-SA in the assay buffer at 665 nm.
IC50 values were calculated using xLFit program (IDBS).
A general note: In TR-FRET formats the signal depends on donor and acceptor labels being close together.
For `CC(CNc1nc(-c2ccc(-c3cnco3)cc2)c(-c2cccnc2)s1)C(=O)O` (centres unmarked) [Compound I-29], the IC50 (usually the concentration at which inhibition is half-maximal) is more than 25 µM.

Regarding `CC(CNc1nc(-c2ccc(-c3cnco3)cc2)c(-c2cccc3[nH]ccc23)s1)C(=O)O` (centres unmarked) [Compound I-30], the IC50 was more than 25 µM.

`O=C(O)C1CCCN(c2nc(-c3ccc(-c4cnco4)cc3)c(-c3ccccc3)s2)C1` (centres unmarked) [Compound I-31] registered an IC50 of more than 25 µM.

As to `O=C(O)C1CCCN(c2nc(-c3ccc(-c4cnco4)cc3)c(-c3cncnc3)s2)C1` (centres unmarked) [Compound I-32], the IC50 is more than 25 µM.

In the case of `O=C(O)C1CCCN(c2nc(-c3ccc(-c4cnco4)cc3)c(-c3cccnc3)s2)C1` (centres unmarked) [Compound I-33], the IC50 was more than 25 µM.

`O=C(O)C1CCCN(c2nc(-c3ccc(-c4cnco4)cc3)c(-c3cccc4[nH]ccc34)s2)C1` (centres unmarked) [Compound I-34]: the IC50 was more than 25 µM.

For `O=C(O)CC1CCCN1c1nc(-c2ccc(-c3cnco3)cc2)cs1` (centres unmarked) [Compound I-35], the IC50 was more than 25 µM.

As for `O=C(O)CC1CCCN1c1nc(-c2ccc(-c3cnco3)cc2)c(-c2ccccc2)s1` (centres unmarked) [Compound I-36], the IC50 was more than 25 µM.

In the case of `O=C(O)CC1CCCN1c1nc(-c2ccc(-c3cnco3)cc2)c(-c2cncnc2)s1` (centres unmarked) [Compound I-37], the IC50 was more than 25 µM.

Regarding `O=C(O)CC1CCCN1c1nc(-c2ccc(-c3cnco3)cc2)c(-c2cccnc2)s1` (centres unmarked) [Compound I-38], the IC50 was more than 25 µM.

`O=C(O)CC1CCCN1c1nc(-c2ccc(-c3cnco3)cc2)c(-c2cccc3[nH]ccc23)s1` (centres unmarked) [Compound I-39] returned an IC50 of more than 25 µM.

For `O=C(O)C1CCN(c2nc(-c3ccc(-c4cnco4)cc3)c(-c3ccccc3)s2)C1` (centres unmarked) [Compound I-40], the IC50 was more than 25 µM.

For the compound `O=C(O)C1CCN(c2nc(-c3ccc(-c4cnco4)cc3)c(-c3cncnc3)s2)C1` (centres unmarked) [Compound I-41], the IC50 is more than 25 µM.

As to `O=C(O)C1CCN(c2nc(-c3ccc(-c4cnco4)cc3)c(-c3cccnc3)s2)C1` (centres unmarked) [Compound I-42], the 50% inhibitory concentration (IC50) is more than 25 µM.

Compound `O=C(O)C1CCN(c2nc(-c3ccc(-c4cnco4)cc3)c(-c3cccc4[nH]ccc34)s2)C1` (centres unmarked) [Compound I-43] had an IC50 of more than 25 µM.

Turning to `O=C(O)C1(CNc2nc(-c3ccc(-c4cnco4)cc3)c(-c3ccccc3)s2)CC1` [Compound I-44], the IC50 was more than 25 µM.

In the case of `O=C(O)C1(CNc2nc(-c3ccc(-c4cnco4)cc3)c(-c3cncnc3)s2)CC1` [Compound I-45], the IC50 was more than 25 µM.

`O=C(O)C1(CNc2nc(-c3ccc(-c4cnco4)cc3)c(-c3cccnc3)s2)CC1` [Compound I-46] gave an IC50 of more than 25 µM.

Compound `O=C(O)C1(CNc2nc(-c3ccc(-c4cnco4)cc3)c(-c3cccc4[nH]ccc34)s2)CC1` [Compound I-47] displayed an IC50 of more than 25 µM.

On to `O=C(O)C1CCN(c2nc(-c3ccc(-c4cnco4)cc3)c(-c3ccccc3)s2)CC1` [Compound I-52], for which the IC50 is more than 25 µM.

On to `O=C(O)C1CCN(c2nc(-c3ccc(-c4cnco4)cc3)c(-c3cncnc3)s2)CC1` [Compound I-53], for which the IC50 is more than 25 µM.

Compound `O=C(O)C1CCN(c2nc(-c3ccc(-c4cnco4)cc3)c(-c3cccnc3)s2)CC1` [Compound I-54] registered an IC50 of more than 25 µM.

For the compound `O=C(O)C1CCN(c2nc(-c3ccc(-c4cnco4)cc3)c(-c3cccc4[nH]ccc34)s2)CC1` [Compound I-55], the IC50 was more than 25 µM.

`O=C(O)C1CN(c2nc(-c3ccc(-c4cnco4)cc3)c(-c3ccccc3)s2)CCO1` (centres unmarked) [Compound I-56] came in with an IC50 of more than 25 µM.

Regarding `O=C(O)C1CN(c2nc(-c3ccc(-c4cnco4)cc3)c(-c3cncnc3)s2)CCO1` (centres unmarked) [Compound I-57], the IC50 is more than 25 µM.

Compound `O=C(O)C1CN(c2nc(-c3ccc(-c4cnco4)cc3)c(-c3cccnc3)s2)CCO1` (centres unmarked) [Compound I-58] registered an IC50 of more than 25 µM.

In turn, `O=C(O)C1CN(c2nc(-c3ccc(-c4cnco4)cc3)c(-c3cccc4[nH]ccc34)s2)CCO1` (centres unmarked) [Compound I-59] came in with an IC50 of more than 25 µM.

With `CC1(C(=O)O)CCCN(c2nc(-c3ccc(-c4cnco4)cc3)c(-c3ccccc3)s2)C1` (centres unmarked) [Compound I-60], the IC50 was more than 25 µM.

On to `CC1(C(=O)O)CCCN(c2nc(-c3ccc(-c4cnco4)cc3)c(-c3cncnc3)s2)C1` (centres unmarked) [Compound I-61], for which the IC50 was more than 25 µM.

With `CC1(C(=O)O)CCCN(c2nc(-c3ccc(-c4cnco4)cc3)c(-c3cccnc3)s2)C1` (centres unmarked) [Compound I-62], the IC50 is more than 25 µM.

In the case of `CC1(C(=O)O)CCCN(c2nc(-c3ccc(-c4cnco4)cc3)c(-c3cccc4[nH]ccc34)s2)C1` (centres unmarked) [Compound I-63], the IC50 is more than 25 µM.

For the compound `CC(C)C(CC(=O)O)Nc1nc(-c2ccc(-c3ccc(F)cc3)cc2)cs1` (centres unmarked) [Compound I-64], the 50% inhibitory concentration (IC50) is 5 to 25 µM.

With `CC(C)C(CC(=O)O)Nc1nc(-c2ccc(-c3ccc(F)cc3)cc2)c(Br)s1` (centres unmarked) [Compound I-65], the IC50 lay within 5 to 25 µM.

Take `CC(C)C(CC(=O)O)Nc1nc(-c2ccc(-c3ccc(F)cc3)cc2)c(-c2ccccc2)s1` (centres unmarked) [Compound I-66]: the 50% inhibitory concentration (IC50) is less than 5 µM.

`CC(C)C(CC(=O)O)Nc1nc(-c2ccc(-c3ccc(F)cc3)cc2)c(-c2cncnc2)s1` (centres unmarked) [Compound I-67] gave an IC50 of more than 25 µM.

`CC(C)C(CC(=O)O)Nc1nc(-c2ccc(-c3ccc(F)cc3)cc2)c(-c2cccnc2)s1` (centres unmarked) [Compound I-68] yielded an IC50 of more than 25 µM.

Compound `CC(C)C(CC(=O)O)Nc1nc(-c2ccc(-c3ccc(F)cc3)cc2)c(-c2cccc3[nH]ccc23)s1` (centres unmarked) [Compound I-69] had an IC50 of 5 to 25 µM.

`CC(C)(CNc1nc(-c2ccc(-c3ccc(F)cc3)cc2)cs1)C(=O)O` [Compound I-70]: the IC50 was more than 25 µM.

As to `CC(C)(CNc1nc(-c2ccc(-c3ccc(F)cc3)cc2)c(Br)s1)C(=O)O` [Compound I-71], the IC50 lay in the range of 5 to 25 µM.

`CC(C)(CNc1nc(-c2ccc(-c3ccc(F)cc3)cc2)c(-c2ccccc2)s1)C(=O)O` [Compound I-72] showed an IC50 of less than 5 µM.

As for `CC(C)(CNc1nc(-c2ccc(-c3ccc(F)cc3)cc2)c(-c2cncnc2)s1)C(=O)O` [Compound I-73], the IC50 is more than 25 µM.

Consider `CC(C)(CNc1nc(-c2ccc(-c3ccc(F)cc3)cc2)c(-c2cccnc2)s1)C(=O)O` [Compound I-74], for which the IC50 is 5 to 25 µM.

Compound `CC(C)(CNc1nc(-c2ccc(-c3ccc(F)cc3)cc2)c(-c2cccc3[nH]ccc23)s1)C(=O)O` [Compound I-75] came in with an IC50 of 5 to 25 µM.

In turn, `O=C(O)C1CN(c2nc(-c3ccc(-c4ccc(F)cc4)cc3)cs2)C1` [Compound I-76] had a concentration for half-maximal inhibition (IC50) of more than 25 µM.

In turn, `O=C(O)C1CN(c2nc(-c3ccc(-c4ccc(F)cc4)cc3)c(-c3ccccc3)s2)C1` [Compound I-77] gave an IC50 of 5 to 25 µM.

`O=C(O)C1CN(c2nc(-c3ccc(-c4ccc(F)cc4)cc3)c(-c3cncnc3)s2)C1` [Compound I-78] showed an IC50 of more than 25 µM.

`O=C(O)C1CN(c2nc(-c3ccc(-c4ccc(F)cc4)cc3)c(-c3cccnc3)s2)C1` [Compound I-79] came in with an IC50 of more than 25 µM.

`O=C(O)C1CN(c2nc(-c3ccc(-c4ccc(F)cc4)cc3)c(-c3cccc4[nH]ccc34)s2)C1` [Compound I-80] had an IC50 of 5 to 25 µM.

Compound `CC1(C(=O)O)CN(c2nc(-c3ccc(-c4ccc(F)cc4)cc3)cs2)C1` [Compound I-81] registered an IC50 of more than 25 µM.

`CC1(C(=O)O)CN(c2nc(-c3ccc(-c4ccc(F)cc4)cc3)c(Br)s2)C1` [Compound I-82] yielded an IC50 of 5 to 25 µM.
